Assay results published in US8080519B2, “Compositions and methods for enhanced pharmacological activity of compositions comprising peptide drug substances” (priority 1999, dated 2011).

What was measured:
[1] = cited from earlier work
splenocytes = assay: T cell proliferation in a skin immunization model (tritiated thymidine incorporation by splenocytes); type: in vivo, mice; details: for Proliferation Index: splenocytes grown 4 days, 2 weeks after skin immunization; for proliferation index, overall comparison: comparison among the tested formulations
Procedure: Model: • 9 week old mice were immunized by application on bare skin of 100·g of Nef(66-97) peptide sequence and modifications thereof in addition to 5·g of choleric toxin and 100·g of oligodeoxynucleotide containing a CpG moiety (Immunology, 2002 104:1-14). 2 weeks later splenocytes were collected and grown over 4 days in the presence of 4 different concentrations of Nef(66-97) peptide (SEQ ID NO:2). The proliferation was measured by incorporating tritiated thymidine.

male Wistar rats = assay: hot plate test in rats (time to first licking of the posterior foot); type: in vivo, rat; details: for Time to first signal activity after i.v. administration: morphine 1 mg/kg; for Time to first signal activity after i.v. administration / Time to first signal activity after oral administration: CY5M 2.5 mg/kg; for Time to first signal activity after oral administration: morphine, codeine, ibuprofen 10 mg/kg
Procedure: The time to first licking of the posterior foot by the rat is recorded after the rat has been place on a hot plate maintained at an elevated temperature (40° C.). This procedure provides accurate data on central analgesic activities induced by various candidate drugs. Under placebo conditions, the time to first licking of the posterior foot of the test animal varies between 30 and 50 seconds. […] In the experiments reported herein, a standard hot plate test was used to assess analgesia and the time to first licking of the test animal's posterior foot was used as the triggering event for measurement of elapsed time as indicative of the pharmacological effect of the administered drug species.
Seven groups of five male Wistar rats each were randomly assigned to the following treatments: placebo, 1 mg/kg morphine (i.v.), 10 mg/kg morphine (oral), 10 mg/kg codeine (oral), 10 mg/kg ibuprofen (oral), 2.5 mg/kg CY5M (i.v.), and 2.5 mg/kg CY5M (oral). The method was pre-validated with two oral and i.v. administrations of saline placebo and the results were similar to those obtained with placebo in the experiment reported below.

[2] = cited from earlier work; remark: listed apart in the source

C[C@H](N[C@@H](CCc1ccccc1)C(=O)O)C(=O)N1CCC[C@H]1C(=O)O [Enalaprilat]
oral absorption [1]: very poorly absorbed orally

Nef(66-97)-palmitoyl lysilamide [Lipo]
Proliferation Index (splenocytes; Conc. of Nef peptide 0.5): 06 | Proliferation Index (splenocytes; Conc. of Nef peptide 5): 08 | Proliferation Index (splenocytes; Conc. of Nef peptide 50): 07 | Proliferation Index (splenocytes; Conc. of Nef peptide .05): 03

cinnamoyl-Met-Enkephalin [CY5M]
duration of analgesic effect (male Wistar rats; i.v. administration): ≥ 24 h | Time to first signal activity after i.v. administration (male Wistar rats; i.v., 0 h): 51.0 s | Time to first signal activity after i.v. administration (male Wistar rats; i.v., 1 h): 57.0 s | Time to first signal activity after i.v. administration (male Wistar rats; i.v., 2 h): 114.0 s | Time to first signal activity after i.v. administration (male Wistar rats; i.v., 4 h): 88.2 s | Time to first signal activity after i.v. administration (male Wistar rats; i.v., 6 h): 106.0 s | Time to first signal activity after i.v. administration (male Wistar rats; i.v., 24 h): 86.6 s | effectiveness relative to morphine by the same route (area under the dose response curve) (male Wistar rats; i.v., CY5M 2.5 mg/kg vs morphine 1 mg/kg): at least 8 times | duration of analgesic effect (male Wistar rats; oral administration): ≥ 24 h | Time to first signal activity after oral administration (male Wistar rats; oral, 0 h): 53.6 s | Time to first signal activity after oral administration (male Wistar rats; oral, 1 h): 46.2 s | Time to first signal activity after oral administration (male Wistar rats; oral, 2 h): 78.8 s | Time to first signal activity after oral administration (male Wistar rats; oral, 4 h): 78.2 s | Time to first signal activity after oral administration (male Wistar rats; oral, 6 h): 82.6 s | Time to first signal activity after oral administration (male Wistar rats; oral, 24 h): 98.8 s | effectiveness relative to morphine by the same route (area under the dose response curve) (male Wistar rats; oral, CY5M 2.5 mg/kg vs morphine 10 mg/kg): at least 8 times

Cinnamoyl-Nef(66-97) G95ψ . . . (CH2—CH2) G96 [C0]
Proliferation Index (splenocytes; Conc. of Nef peptide 0.5): 12 | Proliferation Index (splenocytes; Conc. of Nef peptide 5): 14 | Proliferation Index (splenocytes; Conc. of Nef peptide 50): 12 | Proliferation Index (splenocytes; Conc. of Nef peptide .05): 08

CCOC(=O)[C@H](CCc1ccccc1)N[C@@H](C)C(=O)N1CCC[C@H]1C(=O)O [Enalapril]
oral absorption [1]: better absorbed orally

VGFPVTPQVPLRPMTYKAAVDLSHFLKEKGGL [Nef]
Proliferation Index (splenocytes; Conc. of Nef peptide 0.5): 10 | Proliferation Index (splenocytes; Conc. of Nef peptide 5): 13 | Proliferation Index (splenocytes; Conc. of Nef peptide 50): 10 | Proliferation Index (splenocytes; Conc. of Nef peptide .05): 03

Cinnamoyl-aminooctanoyl-Nef(66-97) G95ψ . . . (CH2—CH2) G96 [CC8]
Proliferation Index (splenocytes; Conc. of Nef peptide 0.5): 22 | Proliferation Index (splenocytes; Conc. of Nef peptide 5): 20 | Proliferation Index (splenocytes; Conc. of Nef peptide 50): 16 | Proliferation Index (splenocytes; Conc. of Nef peptide .05): 10 | proliferation index, overall comparison (splenocytes): best proliferation index

NCCCC[C@H](N[C@@H](CCc1ccccc1)C(=O)O)C(=O)N1CCC[C@H]1C(=O)O [Lisinopril]
solubility in water [2]: relatively good solubility in water | oral bioavailability [1]: < 25% | Tmax (time to maximum serum levels in vivo) ([1]; oral): more than seven

Cinnamoyl-aminovaleryl-Nef(66-97) G95ψ . . . (CH2—CH2) G96 [CC5]
Proliferation Index (splenocytes; Conc. of Nef peptide 0.5): 22 | Proliferation Index (splenocytes; Conc. of Nef peptide 5): 21 | Proliferation Index (splenocytes; Conc. of Nef peptide 50): 20 | Proliferation Index (splenocytes; Conc. of Nef peptide .05): 11 | proliferation index, overall comparison (splenocytes): best proliferation index

COc1ccc2c3c1O[C@H]1[C@@H](O)C=C[C@H]4[C@@H](C2)N(C)CC[C@@]341 [Codeine]
Time to first signal activity after oral administration (male Wistar rats; oral, 0 h): 53.2 s | Time to first signal activity after oral administration (male Wistar rats; oral, 1 h): 51.4 s | Time to first signal activity after oral administration (male Wistar rats; oral, 2 h): 64.6 s | Time to first signal activity after oral administration (male Wistar rats; oral, 4 h): 57.6 s | Time to first signal activity after oral administration (male Wistar rats; oral, 6 h): 56.2 s | Time to first signal activity after oral administration (male Wistar rats; oral, 24 h): 46.4 s

D-Gal(OPiv)4-hydroxyvaleryl-aminooctanoyl-Nef(66-97) • G95ψ . . . (CH2—CH2) G96 [Pivgal]
Proliferation Index (splenocytes; Conc. of Nef peptide 0.5): 05 | Proliferation Index (splenocytes; Conc. of Nef peptide 5): 08 | Proliferation Index (splenocytes; Conc. of Nef peptide 50): 10 | Proliferation Index (splenocytes; Conc. of Nef peptide .05): 02

Tyr-Gly-Gly-Phe-Met [Met-Enkephalin]
duration of transient effect after i.v. administration (male Wistar rats; preliminary study, i.v.): about 15 minutes | analgesic effect after oral administration (male Wistar rats; preliminary study, oral, 5 mg/kg dose): unable to demonstrate any effect

CC(C)Cc1ccc(C(C)C(=O)O)cc1 (stereo not drawn) [Ibuprofen]
Time to first signal activity after oral administration (male Wistar rats; oral, 0 h): 53.2 s | Time to first signal activity after oral administration (male Wistar rats; oral, 1 h): 55.0 s | Time to first signal activity after oral administration (male Wistar rats; oral, 2 h): 70.4 s | Time to first signal activity after oral administration (male Wistar rats; oral, 4 h): 66.0 s | Time to first signal activity after oral administration (male Wistar rats; oral, 6 h): 54.0 s | Time to first signal activity after oral administration (male Wistar rats; oral, 24 h): 44.2 s

CN1CC[C@]23c4c5ccc(O)c4O[C@H]2[C@@H](O)C=C[C@H]3[C@H]1C5 [Morphine]
duration of analgesic effect (male Wistar rats; i.v. administration): six | Time to first signal activity after i.v. administration (male Wistar rats; i.v., 0 h): 51.8 s | Time to first signal activity after i.v. administration (male Wistar rats; i.v., 1 h): 118.8 s | Time to first signal activity after i.v. administration (male Wistar rats; i.v., 2 h): 86.6 s | Time to first signal activity after i.v. administration (male Wistar rats; i.v., 4 h): 63.2 s | Time to first signal activity after i.v. administration (male Wistar rats; i.v., 6 h): 45.6 s | Time to first signal activity after i.v. administration (male Wistar rats; i.v., 24 h): 40.0 s | duration of analgesic effect (male Wistar rats; oral administration): six | Time to first signal activity after oral administration (male Wistar rats; oral, 0 h): 51.8 s | Time to first signal activity after oral administration (male Wistar rats; oral, 1 h): 84.8 s | Time to first signal activity after oral administration (male Wistar rats; oral, 2 h): 81.2 s | Time to first signal activity after oral administration (male Wistar rats; oral, 4 h): 58.8 s | Time to first signal activity after oral administration (male Wistar rats; oral, 6 h): 48.8 s | Time to first signal activity after oral administration (male Wistar rats; oral, 24 h): 42.0 s
